In publication PMC10376326, “Novel Acylselenourea Derivatives: Dual Molecules with Anticancer and Radical Scavenging Activity” (Antioxidants, 2023):

test system: MDA-MB-231 (breast) cancer cell line; assay: MTT cell viability assay, MDA-MB-231; format: cell-based, human; settings: Homo sapiens, MDA-MB-231, 48 h, read-out: Cell growth %, MDA-MB-231, 10 µM, 48 h, MTT
Experimental: (§1) Cell lines were purchased from the American Type Culture Collection (ATCC). Cell lines MDA-MB-231, HTB-54, DU-145, and BEAS-2B were cultured in RPMI 1640 medium (Gibco, Thermo Fisher Scientific, Gaithersburg, MD, USA) supplemented with 10% fetal bovine serum (FBS; Gibco), 100 units/mL penicillin, and […] streptomycin (Gibco). HT-29 cell line was grown in McCoy’s 5A (Gibco), 10% FBS, 100 units/mL penicillin, and 100 μg/mL streptomycin. Cells were maintained at 37 °C and 5% CO2. The culture medium was changed every three days.
(§2) The cell viability of each compound was measured by MTT colorimetric assay. Each compound was dissolved in DMSO at a concentration of 0.01 M. Each compound was tested at two different concentrations (10 and 50 µM) in MDA-MB-231 (breast), HTB-54 (lung), DU-145 (prostate), and HT-29 (colon) human cancer cell lines. Serial dilutions were prepared with supplemented culture medium. […] IC50 and selectivity indexes (SI) were determined.
(§3) Briefly, 1 × 10^4 tumor cells per well were grown in 96-well plates for 24 h. Then, these cells were incubated for 48 h with either DMSO (control) or a different concentration of each of the tested compounds. The cell viability was determined by adding 20 μL of MTT two hours and a half before the termination point. After this time, the culture medium was removed. The resulting formazan crystals were dissolved in 50 μL of DMSO, and the absorbance was measured at 570 nm. Results are expressed as % cell growth. The data were obtained from at least three independent experiments performed in quadruplicate.

Structure (SMILES) | activity at 10 µM [%]
C#CCNC(=[Se])NC(=O)c1cccs1 [Compound 2.III, N-(prop-2-in-1-ylcarbamoselenoyl)thiophene-2-carboxamide] | 27.4 ± 5.4
C#CCNC(=[Se])NC(=O)c1ccccc1 [Compound 5.III, N-(prop-2-in-1-ylcarbamoselenoyl)benzamide] | 78.5 ± 12

same assay, conditions: Homo sapiens, MDA-MB-231, 48 h, read-out: Cell growth %, MDA-MB-231, 50 µM, 48 h, MTT

Structure (SMILES) | activity at 50 µM [%]
C#CCNC(=[Se])NC(=O)c1cccs1 [Compound 2.III, N-(prop-2-in-1-ylcarbamoselenoyl)thiophene-2-carboxamide] | 9.48 ± 7.8
C#CCNC(=[Se])NC(=O)c1ccccc1 [Compound 5.III, N-(prop-2-in-1-ylcarbamoselenoyl)benzamide] | 33.3 ± 6.5

test system: non-malignant BEAS-2B lung cell line; assay: MTT cell viability assay, BEAS-2B; format: cell-based; settings: Homo sapiens, normal lung, 48 h
Experimental: as §1, §2, §3

Structure (SMILES) | IC50 [µM]
C#CCNC(=[Se])NC(=O)c1cccs1 [Compound 2.III, N-(prop-2-in-1-ylcarbamoselenoyl)thiophene-2-carboxamide] | 26.6 ± 4

test system: DU-145 (prostate) cancer cell line; assay: MTT cell viability assay, DU-145; format: cell-based, human; settings: Homo sapiens, DU-145, 48 h, read-out: Cell growth %, DU-145, 10 µM, 48 h, MTT
Experimental: as §1, §2, §3

Structure (SMILES) | activity at 10 µM [%]
C#CCNC(=[Se])NC(=O)c1cccs1 [Compound 2.III, N-(prop-2-in-1-ylcarbamoselenoyl)thiophene-2-carboxamide] | 12.8 ± 2.8
C#CCNC(=[Se])NC(=O)c1ccccc1 [Compound 5.III, N-(prop-2-in-1-ylcarbamoselenoyl)benzamide] | 80.8 ± 7.4

same assay, conditions: Homo sapiens, DU-145, 48 h, read-out: Cell growth %, DU-145, 50 µM, 48 h, MTT

Structure (SMILES) | activity at 50 µM [%]
C#CCNC(=[Se])NC(=O)c1cccs1 [Compound 2.III, N-(prop-2-in-1-ylcarbamoselenoyl)thiophene-2-carboxamide] | 14.3 ± 6.7
C#CCNC(=[Se])NC(=O)c1ccccc1 [Compound 5.III, N-(prop-2-in-1-ylcarbamoselenoyl)benzamide] | 26.3 ± 6.5

test system: HTB-54 (lung) cancer cell line; assay: MTT cell viability assay, HTB-54; format: cell-based, human; settings: Homo sapiens, HTB-54, 48 h, read-out: Cell growth %, HTB-54, 10 µM, 48 h, MTT
Experimental: as §1, §2, §3

Structure (SMILES) | activity at 10 µM [%]
C#CCNC(=[Se])NC(=O)c1cccs1 [Compound 2.III, N-(prop-2-in-1-ylcarbamoselenoyl)thiophene-2-carboxamide] | 76.8 ± 6.8
C#CCNC(=[Se])NC(=O)c1ccccc1 [Compound 5.III, N-(prop-2-in-1-ylcarbamoselenoyl)benzamide] | 76 ± 4.8

same assay, conditions: Homo sapiens, HTB-54, 48 h, read-out: Cell growth %, HTB-54, 50 µM, 48 h, MTT

Structure (SMILES) | activity at 50 µM [%]
C#CCNC(=[Se])NC(=O)c1cccs1 [Compound 2.III, N-(prop-2-in-1-ylcarbamoselenoyl)thiophene-2-carboxamide] | 44.7 ± 3.5
C#CCNC(=[Se])NC(=O)c1ccccc1 [Compound 5.III, N-(prop-2-in-1-ylcarbamoselenoyl)benzamide] | 33.4 ± 8.6

same assay, conditions: Homo sapiens, HTB-54, 48 h, read-out: IC50 HTB-54, Lung, MTT, 48 h

Structure (SMILES) | IC50 [µM]
C#CCNC(=[Se])NC(=O)c1cccs1 [Compound 2.III, N-(prop-2-in-1-ylcarbamoselenoyl)thiophene-2-carboxamide] | 11.6 ± 1.6

same assay, conditions: IC50 (BEAS-2B)/IC50 (HTB-54)

Structure (SMILES) | SI
C#CCNC(=[Se])NC(=O)c1cccs1 [Compound 2.III, N-(prop-2-in-1-ylcarbamoselenoyl)thiophene-2-carboxamide] | 2.3

test system: not listed separately; assay: DPPH radical scavenging assay; format: biochemical; settings: 0.003 mg/mL, 0 min
Experimental: Different methods are available to quantify the antioxidant capacity of natural or novel molecules. Notable among these are the ABTS^•+ and DPPH^• methods, which measure the quenching efficiency in vitro for known concentrations of preformed radicals. In this work, the DPPH^• colorimetric assay was carried out. Measurements were recorded on a BioTeck PowerWave XS spectrophotometer (BioTeck Instruments, Winooski, VT, USA) and data were collected using KCJunior v.1.41. software (BioTeck Instruments, Winooski, VT, USA). Compounds with potent activity were selected to further determine their protective effect against ROS-induced cell death caused by H2O2.
DPPH colorimetric assay was performed to determine the in vitro radical scavenging activity of the acylselenourea derivatives. DPPH assay was performed as described by Svinyarov. For each acylselenourea, a stock solution of 1 mg/mL in dimethyl sulfoxide (DMSO) was made, and these solutions were used to prepare the different concentrations employed in the assay. The compounds were tested at two different concentrations (0.003 and 0.03 mg/mL). Intermediate solutions were prepared in methanol and a volume of 100 µL of each was added to each well of the plate. Then, 100 µL of DPPH^• (previously prepared at a concentration of 0.04 mg/mL in methanol and preserved in the dark) was added to the previous methanolic acylselenourea solutions. The discoloration of the purple radical to the yellow reduced form was followed at 517 nm at different time points (0, 5, 15, 30, 60, 90, and 120 min). Ascorbic acid and trolox were used as positive controls. All measurements were carried out in triplicate. Results are expressed as the percentage of the radicals scavenged, calculated using the following formula: (1) % DPPH radical scavenging=Acontrol - Asample/Acontrol × 100 where Acontrol refers to the absorbance of the negative control and Asample refers to the absorbance of the tested compounds. Results are expressed as percentage of DPPH radical scavenging ± SD.

Structure (SMILES) | inhibition [%]
C#CCNC(=[Se])NC(=O)c1cccs1 [Compound 2.III, N-(prop-2-in-1-ylcarbamoselenoyl)thiophene-2-carboxamide] | 2.4 ± 0.6
C#CCNC(=[Se])NC(=O)c1ccccc1 [Compound 5.III, N-(prop-2-in-1-ylcarbamoselenoyl)benzamide] | 0.6 ± 1.2

same assay, conditions: 0.003 mg/mL, 5 min

Structure (SMILES) | inhibition [%]
C#CCNC(=[Se])NC(=O)c1cccs1 [Compound 2.III, N-(prop-2-in-1-ylcarbamoselenoyl)thiophene-2-carboxamide] | 4.3 ± 0.4
C#CCNC(=[Se])NC(=O)c1ccccc1 [Compound 5.III, N-(prop-2-in-1-ylcarbamoselenoyl)benzamide] | 2.9 ± 1

same assay, conditions: 0.003 mg/mL, 15 min

Structure (SMILES) | inhibition [%]
C#CCNC(=[Se])NC(=O)c1cccs1 [Compound 2.III, N-(prop-2-in-1-ylcarbamoselenoyl)thiophene-2-carboxamide] | 5.4 ± 0.3
C#CCNC(=[Se])NC(=O)c1ccccc1 [Compound 5.III, N-(prop-2-in-1-ylcarbamoselenoyl)benzamide] | 5.1 ± 1.3

same assay, conditions: 0.003 mg/mL, 30 min

Structure (SMILES) | inhibition [%]
C#CCNC(=[Se])NC(=O)c1cccs1 [Compound 2.III, N-(prop-2-in-1-ylcarbamoselenoyl)thiophene-2-carboxamide] | 6.5 ± 0.5
C#CCNC(=[Se])NC(=O)c1ccccc1 [Compound 5.III, N-(prop-2-in-1-ylcarbamoselenoyl)benzamide] | 7.2 ± 1.6

same assay, conditions: 0.003 mg/mL, 60 min

Structure (SMILES) | inhibition [%]
C#CCNC(=[Se])NC(=O)c1cccs1 [Compound 2.III, N-(prop-2-in-1-ylcarbamoselenoyl)thiophene-2-carboxamide] | 7.1 ± 0.5

same assay, conditions: 0.003 mg/mL, 90 min

Structure (SMILES) | inhibition [%]
C#CCNC(=[Se])NC(=O)c1cccs1 [Compound 2.III, N-(prop-2-in-1-ylcarbamoselenoyl)thiophene-2-carboxamide] | 7.3 ± 0.6
C#CCNC(=[Se])NC(=O)c1ccccc1 [Compound 5.III, N-(prop-2-in-1-ylcarbamoselenoyl)benzamide] | 11.3 ± 2

same assay, conditions: 0.003 mg/mL, 120 min

Structure (SMILES) | inhibition [%]
C#CCNC(=[Se])NC(=O)c1cccs1 [Compound 2.III, N-(prop-2-in-1-ylcarbamoselenoyl)thiophene-2-carboxamide] | 7.3 ± 0.6
C#CCNC(=[Se])NC(=O)c1ccccc1 [Compound 5.III, N-(prop-2-in-1-ylcarbamoselenoyl)benzamide] | 12.3 ± 2.1

same assay, conditions: 0.03 mg/mL, 0 min

Structure (SMILES) | inhibition [%]
C#CCNC(=[Se])NC(=O)c1cccs1 [Compound 2.III, N-(prop-2-in-1-ylcarbamoselenoyl)thiophene-2-carboxamide] | 14.5 ± 2.3
C#CCNC(=[Se])NC(=O)c1ccccc1 [Compound 5.III, N-(prop-2-in-1-ylcarbamoselenoyl)benzamide] | 9.3 ± 1

same assay, conditions: 0.03 mg/mL, 5 min

Structure (SMILES) | inhibition [%]
C#CCNC(=[Se])NC(=O)c1cccs1 [Compound 2.III, N-(prop-2-in-1-ylcarbamoselenoyl)thiophene-2-carboxamide] | 12.8 ± 3
C#CCNC(=[Se])NC(=O)c1ccccc1 [Compound 5.III, N-(prop-2-in-1-ylcarbamoselenoyl)benzamide] | 9.8 ± 0.3

same assay, conditions: 0.03 mg/mL, 15 min

Structure (SMILES) | inhibition [%]
C#CCNC(=[Se])NC(=O)c1cccs1 [Compound 2.III, N-(prop-2-in-1-ylcarbamoselenoyl)thiophene-2-carboxamide] | 19.8 ± 2.8
C#CCNC(=[Se])NC(=O)c1ccccc1 [Compound 5.III, N-(prop-2-in-1-ylcarbamoselenoyl)benzamide] | 23 ± 0.3

same assay, conditions: 0.03 mg/mL, 30 min

Structure (SMILES) | inhibition [%]
C#CCNC(=[Se])NC(=O)c1cccs1 [Compound 2.III, N-(prop-2-in-1-ylcarbamoselenoyl)thiophene-2-carboxamide] | 24.8 ± 2.6
C#CCNC(=[Se])NC(=O)c1ccccc1 [Compound 5.III, N-(prop-2-in-1-ylcarbamoselenoyl)benzamide] | 34 ± 0.6

same assay, conditions: 0.03 mg/mL, 60 min

Structure (SMILES) | inhibition [%]
C#CCNC(=[Se])NC(=O)c1cccs1 [Compound 2.III, N-(prop-2-in-1-ylcarbamoselenoyl)thiophene-2-carboxamide] | 30.2 ± 2.9
C#CCNC(=[Se])NC(=O)c1ccccc1 [Compound 5.III, N-(prop-2-in-1-ylcarbamoselenoyl)benzamide] | 46.6 ± 0.9

same assay, conditions: 0.03 mg/mL, 120 min

Structure (SMILES) | inhibition [%]
C#CCNC(=[Se])NC(=O)c1cccs1 [Compound 2.III, N-(prop-2-in-1-ylcarbamoselenoyl)thiophene-2-carboxamide] | 34.4 ± 2.9
C#CCNC(=[Se])NC(=O)c1ccccc1 [Compound 5.III, N-(prop-2-in-1-ylcarbamoselenoyl)benzamide] | 60.2 ± 0.7

same assay, conditions: acylselenourea analogs, 0.03 mg/mL, 90 min

Structure (SMILES) | DPPH Inhibitory% [%]
C#CCNC(=[Se])NC(=O)c1cccs1 [Compound 2.III, N-(prop-2-in-1-ylcarbamoselenoyl)thiophene-2-carboxamide] | 33.0 ± 3.1
C#CCNC(=[Se])NC(=O)c1ccccc1 [Compound 5.III, N-(prop-2-in-1-ylcarbamoselenoyl)benzamide] | 54.6 ± 0.8

test system: HT-29 (colon) cancer cell line; assay: MTT cell viability assay, HT-29; format: cell-based; settings: Homo sapiens, HT-29, 48 h, HT-29, 10 µM, read-out: Cell growth %
Experimental: as §1, §2, §3

Structure (SMILES) | activity at 10 µM [%]
C#CCNC(=[Se])NC(=O)c1cccs1 [Compound 2.III, N-(prop-2-in-1-ylcarbamoselenoyl)thiophene-2-carboxamide] | 43.4 ± 4.2
C#CCNC(=[Se])NC(=O)c1ccccc1 [Compound 5.III, N-(prop-2-in-1-ylcarbamoselenoyl)benzamide] | 70 ± 8.7

same assay, conditions: Homo sapiens, HT-29, 48 h, HT-29, 50 µM, read-out: Cell growth %

Structure (SMILES) | activity at 50 µM [%]
C#CCNC(=[Se])NC(=O)c1cccs1 [Compound 2.III, N-(prop-2-in-1-ylcarbamoselenoyl)thiophene-2-carboxamide] | 20.6 ± 4
C#CCNC(=[Se])NC(=O)c1ccccc1 [Compound 5.III, N-(prop-2-in-1-ylcarbamoselenoyl)benzamide] | 33.9 ± 4.5
